Measurements: patent US9706772B2, “Method for fungicidal and/or bactericidal treatment of resistant strains using essential oil(s)” (XEDA INTERNATIONAL, priority 2011, dated 2017)

Key:
[1] = system: Botrytis spp. Strain resistant to TBZ; experiment: In-vitro inhibition of growth on PDA Petri dishes; type: cell-based
Procedure: (§1) The samples were added to the artificial media and gently mixed before solidification of the Agar solution.
(§2) A small amount of fungal spores is placed in the centre of the potato dextrose agar (PDA) in the Petri dishes at 25°±1° C. for 5/6 days. At the end of the incubation period, we measure the inhibition of the halo that is formed in comparison with the untreated PDA Petri dishes (control).
(§3) The results are indicated as a percentage of the incidence of the disease and the efficacy percentage of the products tested.

Pennicillum spp. = experiment: In-vitro inhibition of growth on PDA Petri dishes; type: cell-based
Procedure: as §1, §2, §3

[2] = system: Pennicillum spp. Strain resistant to Imazalil; experiment: In-vitro inhibition of growth on PDA Petri dishes; type: cell-based
Procedure: as §1, §2, §3

[3] = system: strains of Penicillium expansum resistant to pyrimethanil; experiment: Efficacy of compositions on Gala apples, FIG. 1; type: in vivo; conditions: FIG. 1, "Gala" apples; over the doses shown
Source text: These compositions have been tested on various fungi or bacteria strains, such as illustrated in FIGS. 1 and 2. Unless otherwise indicated, the doses listed in the FIGS. 1 and 2 are given in ppm of active ingredient; the indications in ml/l refer to the quantity of composition C. […] Indeed it is observed that there is a synergistic effect between the fungicide and essential oils/terpene agents.

[4] = system: Monilinia fructicola Strain resistant to Pyrimethanil; experiment: In-vitro inhibition of growth on PDA Petri dishes; type: cell-based; conditions: dose not stated
Procedure: as §1, §2, §3

## Cc1ccc(C(C)C)cc1O [Carvacrol]
[1]; Dose 100 ml/hl
  Efficacy (%): 100%
  Incidence of Disease (%): 0%
[1]; Dose 300 ml/hl
  Efficacy (%): 100%
  Incidence of Disease (%): 0%
[1]; Dose 500 ml/hl
  Efficacy (%): 100%
  Incidence of Disease (%): 0%
[1]; Dose 1,000 ml/hl
  Efficacy (%): 100%
  Incidence of Disease (%): 0%
[1]; at all doses tested
  control (in words): total control

## Cc1ccc(C(C)C)c(O)c1 [Thymol]
Pennicillum spp.; Dose 100 ml/hl
  Efficacy (%): 20%
  Incidence of Disease (%): 80%
Pennicillum spp.; Dose 300 ml/hl
  Efficacy (%): 50%
  Incidence of Disease (%): 50%
Pennicillum spp.; Dose 500 ml/hl
  Efficacy (%): 70%
  Incidence of Disease (%): 30%
Pennicillum spp.; Dose 1,000 ml/hl
  Efficacy (%): 70%
  Incidence of Disease (%): 30%
[2]; Dose 100 ml/hl
  Efficacy (%): 70%
  Incidence of Disease (%): 30%
[2]; Dose 300 ml/hl
  Efficacy (%): 70%
  Incidence of Disease (%): 30%
[2]; Dose 500 ml/hl
  Efficacy (%): 80%
  Incidence of Disease (%): 20%
[2]; Dose 1,000 ml/hl
  Efficacy (%): 90%
  Incidence of Disease (%): 10%

## Cc1cc(C)nc(Nc2ccccc2)n1 [pyrimethanil]
[3]
  efficacy: at most 60%
[4]
  efficacy: 45%
